Results taken from patent publication US20230056497A1, “CD206 Modulators Their Use and Methods for Preparation” (The United States of America, As Represented by the …, priority 2019, published 2023).
Like-named read-outs stand apart in the source and are kept apart here.

Key:
[1] = test system: M2 macrophages; test: Anti-cell viability screening: reduction of M2 macrophage cell viability (Percentage Relative Cell Viability versus Log Molar Concentration); assay type: cell-based; settings: for IC50: Macrophage
Method: Assays were conducted in a 96-well black solid-bottom plate with a final assay volume of 100 μL.

[2] = test system: M2 polarized macrophages with intact CD206 (wild type) versus isogenic M2 polarized macrophages lacking the CD206 receptor; test: Cell viability in M2 polarized macrophages with intact CD206 versus isogenic macrophages lacking CD206; assay type: cell-based
[3] = Pharmacokinetics (PK) profile, plasma concentration versus time; assay type: in vivo
[4] = target: T1, recombinant human CD206 protein (UniProt ID P22897-1) (Homo sapiens, UniProt P22897); test: Electron microscopy of recombinant CD206 incubated with compound, particles scored closed versus open; assay type: binding; settings: 30 minutes at 1 μM
T1 sequence (P22897 19-1456): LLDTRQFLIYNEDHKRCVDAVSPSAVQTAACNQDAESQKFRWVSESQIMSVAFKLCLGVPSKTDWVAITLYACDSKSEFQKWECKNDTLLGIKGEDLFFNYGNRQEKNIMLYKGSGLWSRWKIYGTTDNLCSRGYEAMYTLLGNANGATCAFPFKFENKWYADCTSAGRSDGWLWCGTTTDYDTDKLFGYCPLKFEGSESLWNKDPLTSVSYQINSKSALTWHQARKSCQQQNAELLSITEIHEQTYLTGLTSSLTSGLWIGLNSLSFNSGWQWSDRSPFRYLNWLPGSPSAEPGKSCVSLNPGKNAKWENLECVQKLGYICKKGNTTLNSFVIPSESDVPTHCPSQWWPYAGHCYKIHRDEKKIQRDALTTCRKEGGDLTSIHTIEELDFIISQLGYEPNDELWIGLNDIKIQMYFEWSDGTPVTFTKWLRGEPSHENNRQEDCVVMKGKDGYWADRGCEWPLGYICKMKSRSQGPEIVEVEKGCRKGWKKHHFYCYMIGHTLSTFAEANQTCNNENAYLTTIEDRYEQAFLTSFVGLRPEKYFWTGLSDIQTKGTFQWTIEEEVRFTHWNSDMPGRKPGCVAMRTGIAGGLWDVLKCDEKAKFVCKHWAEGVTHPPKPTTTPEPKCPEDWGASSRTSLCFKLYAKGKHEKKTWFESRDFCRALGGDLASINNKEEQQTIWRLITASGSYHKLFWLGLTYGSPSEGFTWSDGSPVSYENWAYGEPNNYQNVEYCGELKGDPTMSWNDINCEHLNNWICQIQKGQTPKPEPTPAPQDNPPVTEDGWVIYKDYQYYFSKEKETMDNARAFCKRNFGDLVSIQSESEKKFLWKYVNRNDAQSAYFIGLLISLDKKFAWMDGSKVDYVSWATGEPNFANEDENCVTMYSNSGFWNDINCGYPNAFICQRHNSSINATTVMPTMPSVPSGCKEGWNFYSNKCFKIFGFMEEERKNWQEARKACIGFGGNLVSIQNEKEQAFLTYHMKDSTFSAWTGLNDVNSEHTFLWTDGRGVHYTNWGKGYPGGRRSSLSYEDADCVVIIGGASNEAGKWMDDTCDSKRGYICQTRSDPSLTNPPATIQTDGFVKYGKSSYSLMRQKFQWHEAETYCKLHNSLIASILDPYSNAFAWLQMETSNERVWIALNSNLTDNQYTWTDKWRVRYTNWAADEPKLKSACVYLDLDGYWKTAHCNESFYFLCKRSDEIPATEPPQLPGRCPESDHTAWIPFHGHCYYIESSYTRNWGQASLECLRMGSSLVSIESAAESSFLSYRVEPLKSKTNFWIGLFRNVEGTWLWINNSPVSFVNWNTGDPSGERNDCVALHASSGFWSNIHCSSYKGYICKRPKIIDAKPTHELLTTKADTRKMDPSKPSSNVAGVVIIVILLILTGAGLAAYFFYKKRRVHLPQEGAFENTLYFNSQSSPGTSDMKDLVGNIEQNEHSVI
Method: FIGS. 11A and 11B illustrate conformational change on CD206 when incubated with Compound 1.

[5] = test system: Kras(G12D)/Trp53(R172H)/Pdx-1-Cre (KPC) mice (murine pancreatic cancer model); test: In vivo testing in transgenic KPC mice, tumor growth; settings: compared to vehicle
Description: Tumor growth was suppressed during in vivo testing of Compound 1 in fully immune-competent transgenic Kras(G12D)/Trp53(R172H)/Pdx-1-Cre (KPC) mice (murine pancreatic cancer model) compared to vehicle as shown in FIG. 3B. This point was further illustrated in FIGS. 3A and 3C where comparison of tumor volume for mice treated with Compound-1 and untreated mice (vehicle) is shown.

[6] = test system: KPC tumors; test: Quantitative flow cytometry of autochthonous KPC tumors (intratumoral immune landscape); assay type: in vivo, mice
[7] = test system: KPC allograft tumors grown in C57BL/6 mice; test: M2 macrophages adaptive transfer study in KPC allograft model; assay type: in vivo; settings: intratumoral injections 3 times a week, compared to vehicle
[8] = test system: murine M1 macrophages and M2 macrophages; test: Induction of phagocytosis, autophagy and apoptosis in bone marrow derived macrophages (BMDM), M1 versus M2, relative fluorescence; assay type: cell-based
Description: (§1) Induction of phagocytosis, autophagy, and apoptosis was studied in two in vitro models using M1 and M2 macrophages. […] FIGS. 12A to 12E illustrate this selectivity. […] FIGS. 13A to 13C illustrate this selectivity

[9] = test system: RAW264.7 macrophages polarized into M1 and M2; test: Induction of phagocytosis, autophagy and apoptosis in RAW264.7 macrophages polarized into M1 and M2; assay type: cell-based, murine
Description: as §1

[10] = test system: M2 macrophages; test: Cancer cell phagocytosis by M1 and M2 macrophages, relative quantitative fluorescence; assay type: cell-based; settings: M2 versus M1 macrophages
Description: FIGS. 14A to 14B illustrate this selectivity towards M2 macrophages.

[11] = test system: human CD206^high M2 macrophages; test: Cell viability assay of human macrophages; assay type: cell-based; settings: derived from healthy volunteers, compared to M1-like macrophages
Description: (§2) Similar selectivity is observed in dendritic cell DC2.4 viability (FIG. 9B), fibroblast HTT viability (FIG. 9C), RAW cell viability (FIG. 9D), and KPC viability (FIG. 9E).

[12] = test system: CD206 negative control cell lines (DC2.4, fibroblast HTT, non-polarized RAW264.7, KPC cancer cells); test: Cell viability in a panel of CD206 negative control cell lines; assay type: cell-based
Description: as §2

[13] = test system: murine M2 macrophages; test: M1 markers in murine M2 macrophages by quantitative flow cytometry; assay type: cell-based; settings: 20 μM for 2 hours
[14] = CD11b+F4/80+Gr-1 negative cells

## O=C(NCCc1cnc[nH]1)c1ccc(-c2ncc3cnc(-c4ccccc4)cn23)cc1 [Compound 1, N-(2-(1H-imidazol-5-yl)ethyl)-4-(6-phenylimidazo[1,5-a]pyrazin-3-yl)benzamide]
[1]; Table 2, read-out: IC50
  IC50: 2860 nM
[1]; figure legends and text, read-out: IC50, macrophage activity (Percentage Relative Cell Viability versus Log Molar Concentration) (converted)
  IC50: 2860 nM
[1]; Table 2
  M2 Selectivity: Yes
[2]
  CD206 dependence of macrophage activity: CD206 dependent
[3]; IP (intraperitoneal), 20 mg/kg
  concentration at 0.157 h: 7890 nM
  concentration at 0.5 h: 7600 nM
  concentration at 1 h: 11100 nM
  concentration at 1.5 h: 12800 nM
  concentration at 2 h: 5840 nM
  concentration at 4 h: 3020 nM
[3]; IP (intraperitoneal), 20 mg/kg, 7.0 h
  concentration at 7 h: 540 nM
[3]; PO (Per Os, oral), 30 mg/kg
  concentration at 0.157 h: 11 nM
  concentration at 0.5 h: 16 nM
  concentration at 1 h: 23 nM
  concentration at 1.5 h: 190 nM
  concentration at 2 h: 163 nM
  concentration at 4 h: 11 nM
[3]; liver, and pancreas, oral and IP injection
  PK profile: excellent PK profile
[4]
  CD206 particles in a closed state: 48%
  CD206 particles in open state: 52%
  binding to CD206 and conformation of the receptor: binds to CD206 and induces a conformational switch of the receptor
[4]; listed as Example 38
  binding to CD206 and conformation of the receptor: induces the closed conformation of the CD206 receptor
[5]
  Tumor growth: suppressed
[6]; [14]
  CD206 positive cells within tumor associated macrophage population: reduction of CD206 positive cells
  Signal regulatory protein α (SIRPα) of tumor associated macrophages: reduction of the innate checkpoint Signal regulatory protein α (SIRPα)
[6]; compared to vehicle
  CD206 macrophages in tumors (percent positive cell fractions of total cells): reduction of CD206 macrophages
  M2 to M1 macrophage shift in tumors: shift from CD206^high M2 to CD86-positive M1 macrophages
  intratumoral CD8 cells: increase in intratumoral CD8 cells
[6]; treatment for three weeks in KPC mice, compared to vehicle
  M1 markers in intratumoral M1 and M2 macrophage populations: induction of M1 markers
[7]
  Tumor growth after intratumoral injection of pretreated M2 macrophages: reduction of tumor
[8]; BMDM in vitro model
  selectivity to induce phagocytosis, autophagy, and apoptosis: excellent selectivity to induce phagocytosis, autophagy, and apoptosis in M2 but not in M1 macrophages
[8]; M1 versus M2
  induction of apoptosis: induces apoptosis in M2 but not in M1 macrophages
  induction of autophagy: induces autophagy in M2 but not in M1 macrophages
  induction of early phagocytosis: induces early phagocytosis in M2 but not in M1 macrophages
  induction of phagocytosis: induces phagocytosis in M2 but not in M1 macrophages
  induction of phagolysosome formation: induces phagolysosome formation in M2 but not in M1 macrophages
[8]; murine M2 macrophages treated for 24 hours
  dose response in induction of phagocytosis: full dose response
[9]; RAW264.7 cell in vitro model
  selectivity to induce phagocytosis, autophagy, and apoptosis: excellent selectivity to induce phagocytosis, autophagy, and apoptosis in M2 but not in M1 macrophages
[9]; compared to vehicle
  induction of apoptosis: induces apoptosis in M2 macrophages
  induction of autophagy: induces autophagy in M2 macrophages
  induction of phagocytosis: induces phagocytosis in M2 macrophages
[10]
  cancer cell phagocytosis: increases cancer cell phagocytosis in M2 but not in M1 macrophages
[11]
  activity in human CD206^high M2 macrophages: active
[12]
  selectivity versus CD206 negative control cell lines: selective for the CD206^high M2 macrophages
[13]
  M1 markers (percent positive cell fractions): induction of M1 markers in M2 macrophages
